Test results taken from patent US8748417B2, “Amino-pyrrolidine-azetidine diamides as monoacylglycerol lipase inhibitors” (Janssen Pharmaceutica, NV, priority 2010, dated 2014).
Where a chain is given by its changes, count along the chain named.

How the values were obtained:
Format in all cases: biochemical
[1] = molecular target: T1, purified mutant MGL (mut-MGLL 11-313 L179S L186S) (Homo sapiens, UniProt Q99685, L169S/L176S); experiment: MGL enzyme activity assay (4MU-B cleavage), mutant MGL; conditions: mutant MGL 5 nM, 4MU-B 10 μM, 37° C.; read-out: MGL mutant inh IC50
T1 construct: purified mutant MGL (mut-MGLL 11-313 L179S L186S)
T1 sequence (Q99685 1-303 L169S/L176S): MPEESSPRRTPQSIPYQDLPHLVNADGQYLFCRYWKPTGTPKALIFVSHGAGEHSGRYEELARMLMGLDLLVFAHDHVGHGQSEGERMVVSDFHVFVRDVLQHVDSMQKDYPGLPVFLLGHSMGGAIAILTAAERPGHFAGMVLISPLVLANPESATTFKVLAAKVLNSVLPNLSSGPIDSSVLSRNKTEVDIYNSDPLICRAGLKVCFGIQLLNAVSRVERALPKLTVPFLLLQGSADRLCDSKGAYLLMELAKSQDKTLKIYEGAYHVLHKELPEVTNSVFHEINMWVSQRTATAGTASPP
Description: All rate-based assays were performed in black 384-well polypropylene PCR microplates (Abgene) in a total volume of 30 μL. Substrate 4-methylumbelliferyl butyrate (4MU-B; Sigma) and either purified mutant MGL (mut-MGLL 11-313 L179S L186S) or purified wild type MGL (wt-MGLL 6H-11-313) were diluted separately into 20 mM PIPES buffer (pH=7.0), containing 150 mM NaCl and 0.001% Tween 20. Compounds of Formula (I) were pre-dispensed (50 nL) into the assay plate using a Cartesian Hummingbird prior to adding 4MU-B (25 μL of 1.2× solution to a final concentration of 10 μM) followed by enzyme (5 μL of a 6× solution to a final concentration of 5 nM) to initiate the reaction. Final compound concentrations ranged from 17 to 0.0003 μM. The fluorescence change due to 4MU-B cleavage was monitored with excitation and emission wavelengths of 335 and 440 nm, respectively, and a bandwidth of 10 nm (Safire^2, Tecan) at 37° C. for 5 min.
The IC50 values for the following compounds were determined using Microsoft Office Excel from a fit of the equation to the concentration-response plot of the fractional activity as a function of inhibitor concentration.

[2] = molecular target: T2, purified wild type MGL (wt-MGLL 6H-11-313) (Homo sapiens, UniProt Q99685); experiment: MGL enzyme activity assay (4MU-B cleavage), wild type MGL; conditions: wild type MGL 5 nM, 4MU-B 10 μM, 37° C.; read-out: MGL wild type inh IC50
T2 construct: purified wild type MGL (wt-MGLL 6H-11-313)
T2 sequence (Q99685 1-303): T1 sequence (Q99685 1-303 L169S/L176S) with S169L, S176L
How it was run: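 Enzyme in 20 mM PIPES pH 7.0, 150 mM NaCl, 0.001% Tween 20 with 4MU-B at 10 μM final and MGL at 5 nM final; compounds 17 to 0.0003 μM final, enzyme added last. Fluorescence (ex 335/em 440 nm) followed at 37° C for 5 min; IC50 from fit of fractional activity versus inhibitor concentration.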

[3] = test system: MGL (rat brain homogenate); experiment: 2-AG accumulation assay in rat brain homogenate; conditions: compound 1 μM, percent of vehicle 2-AG accumulation
How it was run: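 Rat brain homogenate was incubated with compound for 15 min at 37° C., after which CaCl2 was added to a final concentration of 10 mM and incubation continued for 15 min at 37° C. in 5 mL total. Reactions were stopped with 6 mL of 2:1 chloroform/methanol, and 2-AG accumulated in the organic phase was quantified by HPLC/MS.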

Row | Compound | IC50 [1] [nM] | IC50 [2] [nM] | Rat Brain 2AG % VehCntrl (%) @1 μM [3] [%]
1 | O=C(c1ccc(-c2ccc(Cl)c(Cl)c2)cc1)N1CC(N[C@H]2CCN(C(=O)c3ccccc3)C2)C1 [Cpd 30, (3S)-N-{1-[(3′,4′-Dichlorobiphenyl-4-yl)carbonyl]azetidin-3-yl}-1-(phenylcarbonyl)pyrrolidin-3-amine] | 8.8 | 7 | 155
2 | Cn1cc(-c2ccccc2)c2ccc(C(=O)N3CC(N[C@H]4CCN(C(=O)c5ccccc5)C4)C3)cc21 [Cpd 64, (3S)-N-{1-[(1-Methyl-3-phenyl-1H-indol-6-yl)carbonyl]azetidin-3-yl}-1-(phenylcarbonyl)pyrrolidin-3-amine] | 39.5 | 70.9 | 182
3 | Cc1c(C(=O)N2CC(N[C@H]3CCN(C(=O)c4ccccc4)C3)C2)sc2ccc(-c3cccc(C(F)(F)F)c3)cc12 [Cpd 41, (3S)-N-[1-({3-Methyl-5-[3-(trifluoromethyl)phenyl]-1-benzothiophen-2-yl}carbonyl)azetidin-3-yl]-1-(phenylcarbonyl)pyrrolidin-3-amine] | 6.3 | < 5 | 1102
4 | O=C(c1ccc2c(-c3cccc(C(F)(F)F)c3)cccc2c1)N1CC(N[C@H]2CCN(C(=O)c3ccccc3)C2)C1 [Cpd 25, (3S)-1-(Phenylcarbonyl)-N-[1-({5-[3-(trifluoromethyl)phenyl]naphthalen-2-yl}carbonyl)azetidin-3-yl]pyrrolidin-3-amine] | 7 | < 5 | 823
5 | CN(C1CN(C(=O)c2ccc(-c3cccc(C(F)(F)F)c3)cc2)C1)[C@H]1CCN(C(=O)c2ccccc2)C1 [Cpd 15, (3S)-N-Methyl-1-(phenylcarbonyl)-N-(1-{[3′-(trifluoromethyl)biphenyl-4-yl]carbonyl}azetidin-3-yl)pyrrolidin-3-amine] | 11.7 | 26.5 | 649
6 | CCN(C1CN(C(=O)c2ccc(-c3cccc(C(F)(F)F)c3)cc2)C1)[C@H]1CCN(C(=O)c2ccccc2)C1 [Cpd 53, (3S)-N-Ethyl-1-(phenylcarbonyl)-N-(1-{[3′-(trifluoromethyl)biphenyl-4-yl]carbonyl}azetidin-3-yl)pyrrolidin-3-amine] | 10 | 286 | 164
7 | O=C(c1ccccc1)N1CC[C@H](NC2CN(C(=O)c3sc4cc(-c5ccccc5)ccc4c3Cl)C2)C1 [Cpd 31, (3S)-N-{1-[(3-Chloro-6-phenyl-1-benzothiophen-2-yl)carbonyl]azetidin-3-yl}-1-(phenylcarbonyl)pyrrolidin-3-amine] | 5 | < 5 | 323
8 | O=C(c1ccccc1)N1CC[C@H](NC2CN(C(=O)c3cc4ccc(-c5cccc(C(F)(F)F)c5)cc4s3)C2)C1 [Cpd 44, (3S)-1-(Phenylcarbonyl)-N-[1-({6-[3-(trifluoromethyl)phenyl]-1-benzothiophen-2-yl}carbonyl)azetidin-3-yl]pyrrolidin-3-amine] | 31.7 | 9 | 839
9 | O=C(c1ccc(-c2cccc(Cl)c2)cc1)N1CC(N[C@H]2CCN(C(=O)c3ccccc3)C2)C1 [Cpd 29, (3S)-N-{1-[(3′-Chlorobiphenyl-4-yl)carbonyl]azetidin-3-yl}-1-(phenylcarbonyl)pyrrolidin-3-amine] | 11 | 9.8 | 163
10 | O=C(c1ccccc1)N1CC[C@H](NC2CN(C(=O)c3cc4cc(OC(F)(F)F)ccc4s3)C2)C1 [Cpd 18, (3S)-1-(Phenylcarbonyl)-N-(1-{[5-(trifluoromethoxy)-1-benzothiophen-2-yl]carbonyl}azetidin-3-yl)pyrrolidin-3-amine] | 16.8 | 17.6 | 229
11 | O=C(c1ccc2c(-c3ccccc3)c[nH]c2c1)N1CC(N[C@H]2CCN(C(=O)c3ccccc3)C2)C1 [Cpd 57, (3S)-1-(Phenylcarbonyl)-N-{1-[(3-phenyl-1H-indol-6-yl)carbonyl]azetidin-3-yl}pyrrolidin-3-amine] | 44.3 | 179 | 154

More lines, main results first:

Row | IC50 [1] [nM] | IC50 [2] [nM] | Compound | Rat Brain 2AG % VehCntrl (%) @1 μM [3] [%]
12 | < 5 | 41.4 | O=C(c1ccc(-c2cccc(C(F)(F)F)c2)cc1)N1CC(NC2CN(C(=O)c3ccccc3)CC2F)C1 (stereo not drawn) [Cpd 59, (3-((1-Benzoyl-4-fluoropyrrolidin-3-yl)amino)azetidin-1-yl)(3′-(trifluoromethyl)-[1,1′-biphenyl]-4-yl)methanone] | 389
13 | < 5 | < 5 | O=C(c1ccccc1)N1CC[C@H](NC2CN(C(=O)c3sc4cc(-c5ccc(C(F)(F)F)cc5)ccc4c3Cl)C2)C1 [Cpd 33, (3S)-N-[1-({3-Chloro-6-[4-(trifluoromethyl)phenyl]-1-benzothiophen-2-yl}carbonyl)azetidin-3-yl]-1-(phenylcarbonyl)pyrrolidin-3-amine] | 499
14 | < 5 | 58.8 | O=C(c1ccc(-c2cccc(C(F)(F)F)c2)cc1)N1CC(N(O)[C@H]2CCN(C(=O)c3ccccc3)C2)C1 [Cpd 54, (3S)-N-Hydroxy-1-(phenylcarbonyl)-N-(1-{[3′-(trifluoromethyl)biphenyl-4-yl]carbonyl}azetidin-3-yl)pyrrolidin-3-amine] | 242
15 | < 5 | < 5 | O=C(c1ccccc1)N1CC[C@H](NC2CN(C(=O)c3sc4cc(-c5cccc(C(F)(F)F)c5)ccc4c3Cl)C2)C1 [Cpd 32, (3S)-N-[1-({3-Chloro-6-[3-(trifluoromethyl)phenyl]-1-benzothiophen-2-yl}carbonyl)azetidin-3-yl]-1-(phenylcarbonyl)pyrrolidin-3-amine] | 524
16 | < 5 | 20.2 | O=C(c1ccccc1)N1CC[C@H](NC2CN(C(=O)c3sc4ccccc4c3Br)C2)C1 [Cpd 55, (3S)-N-{1-[(3-Bromo-1-benzothiophen-2-yl)carbonyl]azetidin-3-yl}-1-(phenylcarbonyl)pyrrolidin-3-amine] | 247
17 | < 5 | 68.4 | O=C(c1ccccc1)N1CC[C@H](NC2CN(C(=O)c3sc4cc(F)ccc4c3Cl)C2)C1 [Cpd 56, (3S)-N-{1-[(3-Chloro-6-fluoro-1-benzothiophen-2-yl)carbonyl]azetidin-3-yl}-1-(phenylcarbonyl)pyrrolidin-3-amine] | 222
